What is called inhibition is the drop in the measured response relative to a control, in per cent. The term IC50 denotes the midpoint of a concentration-inhibition curve. A higher IC50 goes with a need for much substance.

Assay [1] concerns the target T1, hCGRPR (Homo sapiens, UniProt O60894+Q16602).
T1 construct: host or cells: CHO
The experiment in a line: Radioligand binding assay, CHO cells, hCGRPR. To be noted: radioligand [125]hGCRPα. The procedure: To define whether β–lactam derivative RGM8-51 could bind to CGRPR, CB2 and M3 receptors, in vitro binding assays were performed, using CHO cell lines transfected with these receptors. The degree of binding was determined by using specific radioligands for each receptor (Table 2, footnote).
These studies were subcontracted to Eurofins-CEREP or Eurofins-PANLABS. Briefly, agonists and antagonist assays were performed in cell cultures overexpressing the corresponding channel (CHO: TRPV1 and TRPA1; HEK293: TRPV3 and ASIC3). In vitro pharmacology, cellular channel functional assays: the compound was prepared in assay buffer to the final concentration, 10 μM. […] The agonist assay was conducted on fluorimeter instruments where the test compound, vehicle controls, and reference agonist were added to the assay plate after a fluorescence baseline was established. […] For the antagonist assay, the compound was pre-incubated for five minutes at room temperature, and then challenged with the EC80 concentration of the reference agonist after establishment of a fluorescence baseline. […] Binding assay results are expressed as a percent of control specific binding. […] Aqueous solubility (μM) was determined by comparing the peak area of the principal peak in a calibration standard (200 μM) containing organic solvent (methanol/water, 60/40, v/v) with the peak area of the corresponding peak in a buffer sample. […]

Assay [2] addresses T2, rTRPM8 (Rattus norvegicus, UniProt Q8R455).
T2 construct: expressed in transfected cells
The experiment in a line: Ca2+ microfluorography assay, HEK293 cells expressing rTRPM8, menthol activation. It counts as cell-based. The procedure: This represents a similar activity as β–lactam 2 and a somewhat higher potency than the model TRPM8 antagonists AMTB.
To measure the effect of the compounds against TRPM8 activity we used microfluorometry-based calcium flux assays with Fluo-4 NW Ca^2+ dye and fluorescence as described in [30]. Briefly, human embryonic kidney cell line (HEK293) cells stably transfected with rTRPM8 or hTRPM8 were seeded in 96-well plates at a cell density of 30,000 cells. After 2 days the medium was replaced with 100 μL of the dye, Fluo-4 NW, loading solution supplemented with probenecid 2.5 mM and incubated 1 h at 37 °C. The TRPM8 activity was measured using POLASTAR plate reader (BMG Labtech) setting the excitation wavelength at 485 nm and the emission wavelength at 520 nm. The baseline fluorescence was recorded for 3 cycles before the addition of vehicle compound at different concentrations and the antagonist, 10 μM AMTB. Fluorescence intensity was recorded during 7 more cycles and 100 μM menthol was added. Fluorescence intensity was recorded during 10 more cycles.
Data analysis: The Z-factor was calculated in each assay using the following equation: […]. In all the experiments, the Z-factor was ≥0.5. The effect of the compounds against TRPM8 activity was determined by normalizing their effect on the maximum fluorescence observed after application of 100 μM menthol. Decrease in menthol signal was expressed as percentage of inhibition (%). All data are expressed as the mean ± standard deviation (SD). Data are expressed as the concentration exerting a half-maximal inhibition of agonist-induced [Ca^2+]i elevation (IC50), which was calculated again using GraphPad Prism® software. All determinations were performed in triplicate (n = 3) in 3 independent experiments (N = 3).

T1 sequence (Q16602 23-461): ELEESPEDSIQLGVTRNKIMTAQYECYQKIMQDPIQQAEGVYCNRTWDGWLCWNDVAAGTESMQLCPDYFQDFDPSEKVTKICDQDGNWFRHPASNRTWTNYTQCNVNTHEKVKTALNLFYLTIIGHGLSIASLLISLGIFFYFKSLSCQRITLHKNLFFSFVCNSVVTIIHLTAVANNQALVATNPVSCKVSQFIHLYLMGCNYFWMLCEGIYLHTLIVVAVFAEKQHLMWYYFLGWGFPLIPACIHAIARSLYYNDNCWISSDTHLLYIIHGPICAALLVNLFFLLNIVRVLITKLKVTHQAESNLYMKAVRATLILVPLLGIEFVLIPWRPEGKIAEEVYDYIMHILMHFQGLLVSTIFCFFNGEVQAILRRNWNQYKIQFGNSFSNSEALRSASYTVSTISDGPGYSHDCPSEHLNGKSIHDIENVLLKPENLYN
T1 sequence (O60894 27-148 partner): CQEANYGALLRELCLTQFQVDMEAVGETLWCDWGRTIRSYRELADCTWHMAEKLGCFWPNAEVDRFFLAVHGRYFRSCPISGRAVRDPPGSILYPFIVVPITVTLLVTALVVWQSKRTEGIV
T2 sequence (Q8R455 whole entry): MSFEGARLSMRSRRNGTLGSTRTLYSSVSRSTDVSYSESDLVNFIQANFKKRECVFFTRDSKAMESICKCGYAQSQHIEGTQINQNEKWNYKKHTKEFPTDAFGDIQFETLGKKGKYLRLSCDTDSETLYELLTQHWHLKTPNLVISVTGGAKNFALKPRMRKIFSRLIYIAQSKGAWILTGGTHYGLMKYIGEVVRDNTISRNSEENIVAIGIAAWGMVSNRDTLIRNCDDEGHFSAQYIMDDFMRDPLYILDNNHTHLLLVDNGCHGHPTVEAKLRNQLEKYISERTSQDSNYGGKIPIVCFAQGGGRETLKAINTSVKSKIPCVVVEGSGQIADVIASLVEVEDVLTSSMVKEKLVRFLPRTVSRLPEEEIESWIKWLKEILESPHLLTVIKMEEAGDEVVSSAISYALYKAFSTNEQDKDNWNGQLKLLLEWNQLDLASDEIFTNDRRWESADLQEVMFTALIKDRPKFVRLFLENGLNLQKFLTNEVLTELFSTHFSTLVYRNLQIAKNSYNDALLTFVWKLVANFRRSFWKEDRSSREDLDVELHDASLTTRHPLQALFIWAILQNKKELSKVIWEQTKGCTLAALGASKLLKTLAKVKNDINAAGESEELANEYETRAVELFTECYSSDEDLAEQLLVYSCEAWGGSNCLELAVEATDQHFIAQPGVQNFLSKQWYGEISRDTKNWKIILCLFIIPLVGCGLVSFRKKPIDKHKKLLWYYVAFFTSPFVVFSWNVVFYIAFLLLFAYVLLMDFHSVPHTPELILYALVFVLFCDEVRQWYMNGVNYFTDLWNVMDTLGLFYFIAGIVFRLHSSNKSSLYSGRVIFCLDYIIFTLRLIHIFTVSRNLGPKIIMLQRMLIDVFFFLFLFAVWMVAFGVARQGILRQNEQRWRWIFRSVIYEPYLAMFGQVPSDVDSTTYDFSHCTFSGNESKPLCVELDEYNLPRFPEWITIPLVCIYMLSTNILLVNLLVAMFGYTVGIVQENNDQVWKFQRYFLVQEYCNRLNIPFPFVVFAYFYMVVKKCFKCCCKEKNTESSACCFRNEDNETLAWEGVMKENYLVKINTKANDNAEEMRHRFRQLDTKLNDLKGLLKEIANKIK

As for `C[C@@H]1C(=O)N(C[C@H](Cc2ccccc2)N(Cc2ccccc2)Cc2ccccc2)[C@]1(Cc1ccccc1)C(=O)OC(C)(C)C` [RGM8-51, 4(S)-Benzyl-3S-methyl-4-(tert-butoxy)carbonyl-1-[(2′S-dibenzylamino-3′-phenyl)prop-1′-yl]-2-oxoazetidine], the “Binding hCGRPR (%), inhibition of specific binding” value in assay [1] (10 μM) is given as “did not show significant affinity”. The inhibition at 10 µM in assay [1] (read-out: Binding hCGRPR (%), inhibition of specific binding) was -1 ± 4.3%. The IC50 in assay [2] (HEK293-rTRPM8, 100 μM menthol) amounted to 1060 ± 1210 nM. Moreover, the “ability to activate TRPM8 channels (agonist activity)” value in assay [2] (HEK293 cells expressing rat or human TRPM8) is “did not have any ability to activate TRPM8 channels”.
